Experimental data reported in PMC12916490 (Molecular Psychiatry, 2025).
pEC50: −log10 of the molar value.

Experiments:
[1] = tested on: C57BL/6 J mice; assay: HTR after single fixed doses prior to brain and blood collection (20 min); assay type: in vivo, mouse; settings: single s.c. dose: DOM 3, DOPR 1, DOBU 3, DOAM 10, 2,5-DMA 10 mg/kg
Method: In these experiments, HTR activity was monitored for 20 min, followed by cardiac puncture and decapitation. Whole blood (~ 300–500 µL per sample) was collected via cardiac puncture, placed in tubes containing 10 µL of heparin (1000 IU/mL), and immediately stored on ice until centrifugation. Blood samples were spun at 3300 rpm at 4 °C and plasma was decanted into vials on dry ice until storage at -80 °C. Whole brains were collected immediately after cardiac puncture. Brains were frozen on dry ice, weighed, then placed into 7-mL homogenizing tubes with ceramic beads, and stored at -80 °C.
Data analysis was performed with Prism software (version 10.1.2, GraphPad Software, Boston, MA, USA). The IC50 values from the radioligand binding assays were determined by nonlinear regression, using three independent concentration-response curves fitted to a one-site model. The Cheng-Prusoff equation was used to calculate Kᵢ values for the competing ligands. EC50 values were determined by applying nonlinear regression to concentration-response curves. Bias factors (β) were calculated based on the relative intrinsic activity approach. More detailed information can be found in the Supplementary information. Mean values for total number of HTR, change in body temperature from pre to post session (Δ°C), and total distance traveled (cm) for each drug dose were compared (p < 0.05) via Welch’s ANOVA with Dunnett’s T3 post test, comparing all doses to respective vehicle controls (0 mg/kg). Welch’s ANOVA with Dunnett’s T3 post test was also used to compare drug concentrations, but the data were compared to DOM in this case. Dose–response relationships for HTR and locomotor activities were plotted using bell-shaped curve fits, while temperature change data were plotted using four-parameter non-linear regression curve fits. The ascending phase of the HTR curve for each drug was used to determine ED50 potency values from four parameter non-linear regression fits. […]

[2] = biological target: h5-HT2A (Homo sapiens, UniProt P28223); assay: Arachidonic acid release (Gαi/o,12/13 marker), h5-HT2A; assay type: cell-based; set-up: expressed in transfected cells; host or cells: HEK 293 cells (membrane preparation); settings: for Emax: read-out: Arachidonic acid release Emax h5-HT2A (95% CI)
Method: Activation of h5-HT2A, h5-HT2B, and h5-HT2C receptors was examined by measuring the accumulation of inositol monophosphate (IP1) as a marker for Gαq-mediated signaling. For h5-HT2A, additional assays measured β-arrestin 2 recruitment and arachidonic acid release, the latter serving as a marker of Gαi/o,12/13 activation. The methodology is described in detail in the Supplementary information.
The IC50 values from the radioligand binding assays were determined by nonlinear regression, using three independent concentration-response curves fitted to a one-site model. The Cheng-Prusoff equation was used to calculate Kᵢ values for the competing ligands. EC50 values were determined by applying nonlinear regression to concentration-response curves. Bias factors (β) were calculated based on the relative intrinsic activity approach. More detailed information can be found in the Supplementary information. Mean values for total number of HTR, change in body temperature from pre to post session (Δ°C), and total distance traveled (cm) for each drug dose were compared (p < 0.05) via Welch’s ANOVA with Dunnett’s T3 post test, comparing all doses to respective vehicle controls (0 mg/kg). Welch’s ANOVA with Dunnett’s T3 post test was also used to compare drug concentrations, but the data were compared to DOM in this case. Dose–response relationships for HTR and locomotor activities were plotted using bell-shaped curve fits, while temperature change data were plotted using four-parameter non-linear regression curve fits. The ascending phase of the HTR curve for each drug was used to determine ED50 potency values from four parameter non-linear regression fits. For combined DOM and DOAM administration, the plasma, brain tissue, and brain dialysate drug concentrations were compared using paired t-tests (p < 0.05). […]
the β-arrestin 2 molecule in the NanoBiT system) were seeded at a density of 50,000 cells per well in poly - D-lysine-coated 96-well plates in medium containing 10% dialyzed FBS. The plate was then incubated at […]
The following day, the cells were washed twice with 150 µL HBSS, and 100 µL HBSS was subsequently added to each well. Thereafter, 25 µL of substrate (1 :20 diluted in buffer) was added, and […]
agonist solutions was added, and the signal was monitored for 2 h. Drug dilutions in HBSS were made from 10 mM stock solutions in DMSO , yielding concentration ranges from 10 µM to 10 pM. All concentrations were run in duplicate and included the appropriate solvent controls. Efficacy was normalized to 5 -HT […]
3.2.3 Arachidonic acid release
Arachidonic acid release was assessed as a marker for Gαi/o,12/13 mediated signaling.
NIH/3T3 cells stably expressing the 5 -HT2A receptor were seeded at a density of 75,000 cells per well in a poly-D-lysine-coated 48-well plate. The following day, the cells were labeled with 300 μL [ 3H]arachidonic […]
Thereafter, the cells were washed 3 times for
(10 mM) of test substances were prepared in DMSO. The final dilution series of test substances dissolved […]
Thereafter, the plate was put on ice, and 400 μL incubation supernatant per well was transferred int o scintillation vials containing scintillation fluid (Ultimagold, Perkin Elmer, Schwerzenbach, Switzerland). The remaining supernatant was removed, and the cells were lysed with 1% sodium dodecyl sulfate lysis buffer. The obtained cell lysate was transferred into scintillation vials containing scintillation fluid. Radioactivity was measured on a liquid scintillation counter (Packard 1900 TR Tri-Carb Liquid Scintillation Counter; Packard Instrument Company). Efficacy was normalized to 5-HT activity.
3.2.4 Calculation of bias factors […]
using 5-HT as the reference agonist.
RApathway = EC50, i = EC50, ref×Emax,i […]

Sequence of h5-HT2A (P28223 whole entry, looked up): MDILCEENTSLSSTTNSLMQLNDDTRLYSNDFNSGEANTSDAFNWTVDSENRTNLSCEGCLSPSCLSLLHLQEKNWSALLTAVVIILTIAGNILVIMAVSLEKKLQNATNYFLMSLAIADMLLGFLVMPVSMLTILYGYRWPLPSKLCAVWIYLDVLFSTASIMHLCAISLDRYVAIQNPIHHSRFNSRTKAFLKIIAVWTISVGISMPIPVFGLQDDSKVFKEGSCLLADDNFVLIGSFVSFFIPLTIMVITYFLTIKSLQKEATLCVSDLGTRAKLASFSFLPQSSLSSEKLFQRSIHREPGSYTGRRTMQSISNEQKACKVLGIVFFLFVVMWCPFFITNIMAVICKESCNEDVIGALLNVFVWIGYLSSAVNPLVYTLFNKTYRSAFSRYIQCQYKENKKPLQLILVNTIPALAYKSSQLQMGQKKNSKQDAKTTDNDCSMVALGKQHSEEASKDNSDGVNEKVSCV

| SMILES | HTR [1] [count/20 min] | Agonist type for Gαi/o,12/13-mediated signaling at the 5-HT2A receptor [2] | Emax [2] [%] | pEC50 [2] |
| --- | --- | --- | --- | --- |
| COc1ccc(OC)c(CC(C)N)c1.Cl (stereo not shown) [2,5-DMA, 2,5-Dimethoxyamphetamine hydrochloride] | 19 | high efficacy partial agonists | 59 | – |
| CCc1cc(OC)c(CC(C)N)cc1OC (stereo not shown) [DOET, 4-ethyl-2,5-dimethoxyamphetamine] | – | high efficacy partial agonists | 88 | 8.82 |
| CCCCCc1cc(OC)c(CC(C)N)cc1OC (stereo not shown) [DOAM, 4-amyl-2,5-dimethoxyamphetamine] | 30 | high efficacy partial agonists | 91 | 8.62 |
| CCCCc1cc(OC)c(CC(C)N)cc1OC (stereo not shown) [DOBU, 4-butyl-2,5-dimethoxyamphetamine] | 37 | high efficacy partial agonists | 74 | 8.70 |
| CCCc1cc(OC)c(CC(C)N)cc1OC.Cl (stereo not shown) [DOPR, 4-propyl-2,5-dimethoxyamphetamine hydrochloride] | – | – | 117 | 9.07 |
| COc1cc(CC(C)N)c(OC)cc1C (stereo not shown) [DOM, 4-methyl-2,5-dimethoxyamphetamine] | – | high efficacy partial agonists | 75 | 8.43 |
